Results on three substances are retold here after patent US11058902B2, “Compositions and methods for treating disease associated with permeability of intestinal epithelium” (9 Meters Biopharma, Inc., priority 2017, dated 2021).

Read-outs that look alike come from different tables or passages of the source.

Assay [1] has as its system ischemic-injured porcine jejunum. The experiment in a line: Recovery of barrier function (transepithelial resistance, TER) in ischemic-injured porcine jejunum mucosa ex vivo in Ussing chambers. As to conditions: fragment added together with larazotide. Type of assay: cell-based, Yorkshire-cross pigs. The text has this: Intestinal epithelial tight junction integrity is crucial to maintain an intact intestinal barrier against noxious luminal contents. […] Porcine mucosa injured by ischemia/reperfusion injury is abnormally permeable until interepithelial tight junctions have re-assembled.
(§1) Yorkshire-cross pigs 6-8-weeks-of-age were anesthetized, followed by midline laparotomy and creation of a series of 10 cm intestinal loops commencing proximal to the ileum by ligating the intestinal lumen. The local mesenteric vasculature was ligated to select treatment loops for 45-min, whereas other loops were left as non-ischemic controls. Loops were subsequently resected, and the mucosal tissues were stripped in oxygenated (95% O2/5% CO2) Ringers from the muscle layers in preparation for ex vivo incubation in Ussing chambers. Tissues were monitored by measuring transepithelial resistance (TER) for 240-min. At the end of a 240-min recovery period, tissues were taken for histology and immunofluorescence evaluation of tight junction proteins.

For the next assay, the system named is tight junction. The experiment in a line: Activity as tight junction regulators (larazotide fragments, alone or mixed with larazotide). To be noted: for activity as tight junction regulators: fragment alone. The text has this:
In various embodiments, the methods of the invention comprise treating a subject with larazotide or derivative thereof. Larazotide is a peptide agent that promotes tight junction integrity in the gastrointestinal tract (GI). […] See US 2016/0022760, which is hereby incorporated by reference in its entirety. […] In accordance with this disclosure, it is believed that an aminopeptidase located within the brush borders of the lumen surface may create larazotide-derived fragments, including fragments missing N-terminal glycine residues.

For a further assay, the system named is celiac disease symptoms. To be noted: clinical trials, cited from earlier work.
The subject of the next assay is occludin. To be noted: tissues treated with larazotide.
Excerpt: as §1

A further assay deals with claudin 2. As to conditions: tissues treated with larazotide.
Excerpt: as §1

For the substance “GVLVQPG [larazotide-derived fragment missing an N-terminal glycine residue]”, the “effect of larazotide in the presence of the fragment” value in assay [1] was “blocked”. Besides, in the assay with tight junction, the “activity as tight junction regulators” value is “inactive” and the “activity of full length larazotide when mixed with the two fragments” value is “completely abolished”.

On to “Gly Gly Val Leu Val Gin Pro Gly [larazotide]”, for which the “reducing celiac disease symptoms” value in the assay on celiac disease symptoms (higher doses (e.g., 1 mg and 2 mg doses)) is “attenuation of activity, or no activity at all”; with celiac disease symptoms (lower doses (e.g., 0.5 mg dose)), “benefit at reducing celiac disease symptoms”. In addition, the “localization of the tight junction sealing protein occludin” value with occludin is “increased localization”. Moreover, in the assay on claudin 2, the “pore (leak)-forming tight junction protein claudin 2” value is “reductions”.

In the case of “VLVQPG [larazotide-derived fragment missing N-terminal glycine residues]”, the “effect of larazotide in the presence of the fragment” value in assay [1] is “blocked”. For the same substance, in the assay on tight junction, the “activity as tight junction regulators” value is “inactive” and the “activity of full length larazotide when mixed with the two fragments” value is “completely abolished”.
